What was measured:
[1] = molecular target: 5-hydroxytryptamine receptor 1B (Rattus norvegicus, UniProt P28564); assay: Binding affinity for 5-hydroxytryptamine 1B receptor
[2] = molecular target: 5-hydroxytryptamine receptor 2A (Bos taurus, UniProt Q75Z89); assay: Binding affinity towards 5-hydroxytryptamine 2A receptor
[3] = molecular target: T1, Serotonin 3 (5-HT3) receptor (Rattus norvegicus, UniProt P35563+Q9JJ16); assay: Binding affinity towards 5-hydroxytryptamine 3 receptor; format: protein-complex assay
T1 sequence (P35563 whole entry): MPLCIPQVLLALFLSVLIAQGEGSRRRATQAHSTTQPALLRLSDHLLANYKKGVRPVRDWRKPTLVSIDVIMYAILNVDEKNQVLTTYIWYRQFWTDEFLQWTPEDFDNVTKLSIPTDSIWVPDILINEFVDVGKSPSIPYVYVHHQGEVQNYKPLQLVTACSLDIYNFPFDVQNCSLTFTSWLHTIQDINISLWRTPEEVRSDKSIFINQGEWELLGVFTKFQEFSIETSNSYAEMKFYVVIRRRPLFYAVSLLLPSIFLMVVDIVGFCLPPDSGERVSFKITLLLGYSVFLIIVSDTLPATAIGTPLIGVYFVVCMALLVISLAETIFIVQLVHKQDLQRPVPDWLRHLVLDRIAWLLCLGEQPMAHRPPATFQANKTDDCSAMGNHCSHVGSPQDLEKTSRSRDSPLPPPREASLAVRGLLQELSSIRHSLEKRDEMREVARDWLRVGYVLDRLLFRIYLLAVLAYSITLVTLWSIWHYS
T1 sequence (Q9JJ16 whole entry): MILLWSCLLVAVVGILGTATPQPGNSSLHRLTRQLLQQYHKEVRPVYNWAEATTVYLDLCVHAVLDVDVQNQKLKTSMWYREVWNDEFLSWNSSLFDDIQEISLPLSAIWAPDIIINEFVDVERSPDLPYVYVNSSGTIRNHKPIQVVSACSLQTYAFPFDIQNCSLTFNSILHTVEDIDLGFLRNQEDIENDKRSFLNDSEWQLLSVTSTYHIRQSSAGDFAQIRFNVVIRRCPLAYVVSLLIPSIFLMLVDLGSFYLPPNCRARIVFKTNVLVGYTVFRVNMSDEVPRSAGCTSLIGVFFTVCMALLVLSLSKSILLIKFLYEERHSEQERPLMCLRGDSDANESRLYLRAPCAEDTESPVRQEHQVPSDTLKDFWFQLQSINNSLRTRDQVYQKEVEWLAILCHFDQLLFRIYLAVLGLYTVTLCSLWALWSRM

[4] = molecular target: 5-hydroxytryptamine receptor 1D (Sus scrofa, UniProt P79400); assay: Binding affinity for 5-hydroxytryptamine 1D receptor
5-hydroxytryptamine receptor 1D, sequence (P79400 whole entry): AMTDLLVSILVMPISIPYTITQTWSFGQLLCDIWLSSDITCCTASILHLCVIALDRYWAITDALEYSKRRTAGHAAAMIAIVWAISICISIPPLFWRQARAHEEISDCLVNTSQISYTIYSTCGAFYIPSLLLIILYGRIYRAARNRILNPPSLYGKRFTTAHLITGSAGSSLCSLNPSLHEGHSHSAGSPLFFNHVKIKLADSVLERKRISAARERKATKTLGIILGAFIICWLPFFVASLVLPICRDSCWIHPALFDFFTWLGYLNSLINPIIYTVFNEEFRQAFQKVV

[5] = molecular target: T2, 5-hydroxytryptamine receptor 2C (Homo sapiens, UniProt P28335); assay: Binding affinity towards 5-hydroxytryptamine 2C receptor
T2 sequence (P28335 whole entry): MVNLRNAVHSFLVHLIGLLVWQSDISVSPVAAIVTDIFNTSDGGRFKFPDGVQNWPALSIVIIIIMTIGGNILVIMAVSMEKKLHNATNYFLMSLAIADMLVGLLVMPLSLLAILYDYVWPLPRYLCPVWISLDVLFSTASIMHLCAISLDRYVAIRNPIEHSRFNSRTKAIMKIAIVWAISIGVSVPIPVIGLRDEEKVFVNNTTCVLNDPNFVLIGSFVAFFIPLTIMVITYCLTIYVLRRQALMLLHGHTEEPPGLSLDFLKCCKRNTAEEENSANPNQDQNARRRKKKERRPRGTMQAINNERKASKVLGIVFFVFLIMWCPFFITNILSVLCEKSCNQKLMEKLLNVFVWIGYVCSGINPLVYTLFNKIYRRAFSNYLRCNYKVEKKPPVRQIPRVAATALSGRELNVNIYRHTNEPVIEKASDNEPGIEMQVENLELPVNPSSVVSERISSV

[6] = molecular target: T3, 5-hydroxytryptamine receptor 1A (Homo sapiens, UniProt P08908); assay: Binding affinity for 5-hydroxytryptamine 1A receptor
T3 sequence (P08908 whole entry): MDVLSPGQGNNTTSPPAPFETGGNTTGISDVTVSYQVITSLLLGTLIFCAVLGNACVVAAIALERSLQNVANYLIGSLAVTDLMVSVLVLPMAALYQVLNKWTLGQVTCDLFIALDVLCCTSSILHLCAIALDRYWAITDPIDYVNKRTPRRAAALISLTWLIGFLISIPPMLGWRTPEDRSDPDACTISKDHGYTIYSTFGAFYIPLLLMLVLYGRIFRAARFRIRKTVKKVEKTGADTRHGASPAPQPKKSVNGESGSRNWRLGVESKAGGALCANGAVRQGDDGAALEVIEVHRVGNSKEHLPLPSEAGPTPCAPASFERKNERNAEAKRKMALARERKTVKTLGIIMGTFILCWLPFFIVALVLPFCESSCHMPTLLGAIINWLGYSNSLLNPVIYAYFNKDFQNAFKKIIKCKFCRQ

5-hydroxytryptamine receptor 2A, sequence (Q75Z89 whole entry): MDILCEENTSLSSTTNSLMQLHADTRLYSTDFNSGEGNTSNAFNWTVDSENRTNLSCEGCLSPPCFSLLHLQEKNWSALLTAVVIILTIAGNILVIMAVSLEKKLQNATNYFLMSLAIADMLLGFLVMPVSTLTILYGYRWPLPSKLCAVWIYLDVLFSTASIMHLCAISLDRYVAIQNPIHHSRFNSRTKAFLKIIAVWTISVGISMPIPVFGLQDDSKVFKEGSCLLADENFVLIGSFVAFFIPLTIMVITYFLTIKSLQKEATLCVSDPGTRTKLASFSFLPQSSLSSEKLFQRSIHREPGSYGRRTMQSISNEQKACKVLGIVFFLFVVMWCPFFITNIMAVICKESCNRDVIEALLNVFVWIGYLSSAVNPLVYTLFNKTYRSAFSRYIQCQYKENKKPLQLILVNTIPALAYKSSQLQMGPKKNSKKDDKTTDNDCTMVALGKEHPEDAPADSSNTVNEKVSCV
5-hydroxytryptamine receptor 1B, sequence (P28564 whole entry): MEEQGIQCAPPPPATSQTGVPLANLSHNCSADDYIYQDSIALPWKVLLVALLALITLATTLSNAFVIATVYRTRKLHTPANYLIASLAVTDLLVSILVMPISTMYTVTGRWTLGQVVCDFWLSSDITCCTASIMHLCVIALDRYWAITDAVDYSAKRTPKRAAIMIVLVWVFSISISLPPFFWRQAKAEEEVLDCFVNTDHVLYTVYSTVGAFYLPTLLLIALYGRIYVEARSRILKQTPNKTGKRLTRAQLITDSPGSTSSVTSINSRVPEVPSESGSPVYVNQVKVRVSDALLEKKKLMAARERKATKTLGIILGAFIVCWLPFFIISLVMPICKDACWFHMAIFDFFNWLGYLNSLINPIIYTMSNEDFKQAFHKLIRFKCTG

Clc1ccc(CN2CCN(c3nc4ccsc4n4cccc34)CC2)cc1Cl
IC50 [1]: 4.27 µM
IC50 [2]: 17.4 µM
IC50 [3]: 2.29 µM
IC50 [4]: 44.7 µM
IC50 [5]: 3.89 µM
IC50 [6]: 1.35 µM

c1ccc(CN2CCN(c3nc4scc(-c5ccccc5)c4n4cccc34)CC2)cc1
IC50 [1]: 24 µM
IC50 [2]: 63.1 µM
IC50 [3]: 6.76 µM
IC50 [4]: 30.9 µM
IC50 [5]: 2.63 µM
IC50 [6]: 25.7 µM

CCCN1CCN(c2nc3ccsc3n3cccc23)CC1
IC50 [1]: 1.1 µM
IC50 [2]: 1.07 µM
IC50 [3]: 0.0603 µM
IC50 [4]: 0.135 µM
IC50 [5]: 0.347 µM
IC50 [6]: 0.0933 µM

Clc1ccc(CN2CCN(c3nc4ccsc4n4cccc34)CC2)c(Cl)c1
IC50 [1]: 4.68 µM
IC50 [2]: 7.41 µM
IC50 [3]: 0.0166 µM
IC50 [4]: 3.09 µM
IC50 [5]: 0.851 µM
IC50 [6]: 0.661 µM

FC(F)(F)c1cccc(N2CCN(c3nc4sc(-c5ccccc5)cc4n4cccc34)CC2)c1
IC50 [1]: > 100 µM
IC50 [2]: > 100 µM
IC50 [3]: 1740 µM
IC50 [4]: > 100 µM
IC50 [5]: 23.4 µM
IC50 [6]: > 100 µM

O=C(CN1CCN(c2nc3ccsc3n3cccc23)CC1)N1CCCC1
IC50 [1]: > 100 µM
IC50 [2]: 14.5 µM
IC50 [3]: 1.48 µM
IC50 [4]: 251 µM
IC50 [5]: 8.32 µM
IC50 [6]: 0.407 µM

C[N+]1(Cc2ccccc2)CCN(c2nc3ccsc3n3cccc23)CC1
IC50 [1]: 40.7 µM
IC50 [2]: 17.4 µM
IC50 [3]: 0.126 µM
IC50 [4]: > 100 µM
IC50 [5]: 15.5 µM
IC50 [6]: 7.76 µM

c1ccc(N2CCN(c3nc4ccsc4n4cccc34)CC2)cc1
IC50 [2]: > 100 µM
IC50 [3]: > 100 µM
IC50 [4]: > 100 µM
IC50 [5]: > 100 µM
IC50 [6]: > 100 µM

FC(F)(F)c1ccccc1CCN1CCN(c2nc3ccsc3n3cccc23)CC1
IC50 [1]: 18.6 µM
IC50 [2]: 5.13 µM
IC50 [3]: 269 µM
IC50 [4]: 200 µM
IC50 [5]: 1.07 µM
IC50 [6]: 0.0724 µM

CCOC(=O)N1CCN(c2nc3ccsc3n3cccc23)CC1
IC50 [2]: 123 µM
IC50 [3]: 204 µM
IC50 [4]: 513 µM
IC50 [5]: > 100 µM
IC50 [6]: 33.9 µM

CN1CCN(c2nc3sc(-c4ccccc4)cc3n3cccc23)CC1
IC50 [1]: > 100 µM
IC50 [2]: 13.8 µM
IC50 [3]: 21.4 µM
IC50 [4]: 60.3 µM
IC50 [5]: 2.19 µM
IC50 [6]: 15.5 µM

c1ccc(CN2CCN(c3nc4cc(-c5ccccc5)sc4n4cccc34)CC2)cc1
IC50 [1]: > 100 µM
IC50 [2]: 339 µM
IC50 [3]: 589 µM
IC50 [4]: > 100 µM
IC50 [5]: 468 µM
IC50 [6]: > 100 µM

C(=C\c1ccccc1)/CN1CCN(c2nc3ccsc3n3cccc23)CC1
IC50 [1]: 0.646 µM
IC50 [2]: 0.851 µM
IC50 [3]: 0.2 µM
IC50 [4]: 105 µM
IC50 [5]: 0.708 µM
IC50 [6]: 0.0832 µM

CN1CCN(c2nc3sccc3n3cccc23)CC1
IC50 [2]: 2.34 µM
IC50 [3]: 0.24 µM
IC50 [4]: 0.912 µM
IC50 [6]: 0.0525 µM

c1ccc(-c2cc3nc(N4CCNCC4)c4cccn4c3s2)cc1
IC50 [1]: > 100 µM
IC50 [2]: 302 µM
IC50 [3]: 2.45 µM
IC50 [4]: 35.5 µM
IC50 [5]: 10 µM

C1=CCN(c2nc3ccsc3n3cccc23)CC1
IC50 [2]: 112 µM
IC50 [3]: > 100 µM
IC50 [4]: > 100 µM
IC50 [5]: > 100 µM
IC50 [6]: 457 µM

c1ccc2nc(N3CCNCC3)ccc2c1 [QUIPAZINE]
IC50 [1]: 7.08 µM
IC50 [2]: 3.47 µM
IC50 [4]: 3.72 µM
IC50 [5]: 0.0617 µM

CN1CCN(c2nc3cc(C(F)(F)F)ccc3n3cccc23)CC1
IC50 [1]: 0.339 µM
IC50 [2]: 18.6 µM
IC50 [3]: 1.32 µM
IC50 [4]: 0.123 µM
IC50 [6]: 0.0468 µM

c1cc2c(N3CCN(Cc4ccc5c(c4)OCO5)CC3)nc3sccc3n2c1
IC50 [1]: 7.08 µM
IC50 [2]: 24.5 µM
IC50 [3]: 0.00102 µM
IC50 [4]: 20 µM
IC50 [5]: 2.57 µM

FC(F)(F)c1cccc(N2CCN(c3nc4ccsc4n4cccc34)CC2)c1
IC50 [2]: 1.78 µM
IC50 [3]: 1.58 µM
IC50 [4]: 1.26 µM
IC50 [5]: 0.155 µM
IC50 [6]: 0.288 µM
